In patent US9351963B2, “Defensin-like molecules as novel antimicrobial agents” (UNIVERSITY OF MARYLAND, BALTIMORE, priority 2010, dated 2016):

tested on: not listed separately; test: Surface Plasmon Resonance binding to immobilized 3-Lipid II (BIAcore); conditions: SPR, 10 μM, room temperature, 40 RUs 3-Lipid II
Experimental: Short-chain water-soluble Lipid II containing a lipid tail of three isoprene units was generated and purified essentially as described (Breukink, E., van Heusden, H. E., Vollmerhaus, P. J., Swiezewska, E., Brunner, L., Walker, S., Heck, A. J., and de Kruijff, B. (2003) J Biol Chem 278, 19898-19903). Typically, M. flavus vesicles (120 μmol lipid-Pi) were incubated together with 500 μmol UDP-GlcNAc, 500 μmol UDP-MurNAC-pentapeptide and 400 μmol farnesyl phosphate (3-P) in 100 mM Tris-HCl pH 8.0, 5 mM MgCl2. The incubation lasted two hours at room temperature for 3-P. The synthesis of 3-Lipid II was followed using RP-8 reversed phase TLC (Merck) developed in 75% methanol. For purification, the membranes were removed by centrifugation at 40,000×g and the supernatant was collected and loaded on a C18 HPLC column and eluted with a linear gradient from 50 mM ammonium bicarbonate to 100% methanol in 30 minutes. Farnesyl-Lipid II (3-Lipid II) eluted at approximately 60% methanol. Its identity was confirmed by mass spectroscopy.
Surface Plasmon Resonance binding experiments were carried out on a BIAcore T100 system (BIAcore Inc., Piscataway, N.Y.) at 25° C. The assay buffer was 10 mM HEPES, 150 mM NaCl, 0.05% surfactant P20, pH 7.4 (±3 mM EDTA) supplemented with 10% DMSO. […] For initial determination of binding, defensin mimetics were introduced into the flow-cells (30 μl/min) in the running buffer at 10 μM. Resonance signals were corrected for nonspecific binding by subtracting the background of the control flow-cell. After each analysis, the sensor chip surfaces were regenerated with 50 mM NaOH for 30 s at a flow rate 100 μl/min, and equilibrated with the buffer prior to next injection. For binding kinetics studies, binding isotherms were analyzed with manufacturer-supplied software for BIAcore T100.

Question: Which “Binding of HNP-1 single alanine mutants to Lipid II compared to wild-type HNP-1” value (“Binding … compared to wild-type HNP-1” below) does the source give for “Gly23: HNP-1 single alanine mutant, Gly23 replaced by alanine” here?
Answer: did not affect binding

Question: With “Ile10: HNP-1 single alanine mutant, Ile10 replaced by alanine” as the molecule, how does the “Binding … compared to wild-type HNP-1” value read?
Answer: did not affect binding

Question: For “Arg5: HNP-1 single alanine mutant, Arg5 replaced by alanine”, which “Binding … compared to wild-type HNP-1” value is on record?
Answer: did not affect binding

Question: For “HNP-1 R24A mutant: HNP-1 single alanine mutant, Arg24 replaced by alanine”, which “Binding … compared to wild-type HNP-1” value is on record?
Answer: maintained significant binding

tested on: S. aureus ATCC 29213; test: Murine peritoneal sepsis model; assay type: in vivo, C57BL/6J mice; conditions: mouse, in vivo
Experimental: Adult C57BL/6J mice (˜18 grams, 8-10 weeks old) were used for all experiments. Mice were obtained from the Jackson Laboratory (Bar Harbour, Me., USA) and housed in the IHV SPC animal core facility. Mice were fed standard chow (Harlan Laboratories) and water ad libitum. To assess the protective potency of defensin mimetic BAS00127538, groups of 5 mice were inoculated intraperitoneally ˜10^7 CFU/mL of S. aureus ATCC 29213 in 500 μL saline solution/25% DMSO plus 4.5% (w/v) porcine gastric mucin (Sigma Chemical Co., St Louis, Mo.). Infected animals (n=5) were subsequently treated by intra-peritoneal injection 1 and 4 hours post-infection with 2.5 mg/kg of compound in 100 μL sterile saline solution plus 25% DMSO (V/V), vancomycin/lysostaphin (5 mg/kg, saline solution/25% DMSO) or vehicle (saline solution/25% DMSO) as positive and negative controls respectively. Animals were closely observed during a period of 24 hours and mice that show signs of severe sepsis were humanely euthanized. Blood samples were collected by retro-orbital puncture at the indicated intervals post-infection using lithium-heparin polystyrene tubes to prevent coagulation. Spleens were harvested aseptically, weighed and homogenized in 500 μl of sterile saline solution using an IKA T10 basic disperser (IKA, Wilmington N.C.). Whole blood samples and spleen homogenates were serially diluted and plated onto LB agar plates. Bacterial counts were determined following 24 h incubation at 37° C. and expressed as CFU per milliliter for blood and CFU per gram for spleen.
Next, a murine model for sepsis was established to evaluate the efficacy of the lead defensin mimetics as antibiotic agents in vivo. […] Mice (n=5) were inoculated intraperitoneally with S. aureus 29213 and treated 1 h and 4 h post-infection with compound BAS00127538 at 2.5 mg/kg intraperitoneally Animals were monitored for survival and blood and spleen samples were collected. Bacterial counts were determined and compared to control treatment with vancomycin/lysostaphin as measures of efficacy (FIG. 6).

Question: For CCCCC[n+]1c(/C=C2\Sc3cc(NC(C)=O)ccc3N2CC)ccc2ccccc21 [Compound 4890-0291, N-[(2Z)-3-ethyl-2-[(1-pentylquinolin-1-ium-2-yl)methylidene]-1,3-benzothiazol-6-yl]acetamide], which “Efficacy in vivo in a murine model for sepsis” value (from here on “Efficacy in vivo”) is on record?
Answer: proven effective

Question: For Oc1ccccc1Oc1c(F)c(F)c(-c2c(F)c(F)c(Oc3ccccc3O)c(F)c2F)c(F)c1F [Compound 1611-0203, 2-{2,3,5,6-tetrafluoro-4-[2,3,5,6-tetrafluoro-4-(2-hydroxyphenoxy)phenyl]phenoxy}phenol], which “Efficacy in vivo” value is on record?
Answer: proven effective

Question: With c1ccc(-c2nc(N(c3ccccc3)c3ccccc3)s[n+]2-c2ccccc2)cc1 [Compound 1492-0330, 5-(diphenylamino)-2,3-diphenyl-1,2$1^5,4-thiadiazol-2-ylium] as the molecule, how does the “Efficacy in vivo” value read?
Answer: proven effective

Question: Which “Efficacy in vivo” value does the source give for CC[n+]1c(/C=C2C=C(/C=C/C(C)=C\N(C)C)CC(C)(C)C/2)sc2ccccc21 [Compound 4090-1979, 2-{[(1E)-3-[(1E,3Z)-4-(dimethylamino)-3-methylbuta-1,3-dien-1-yl]-5,5-dimethylcyclohex-2-en-1-ylidene]methyl}-3-ethyl-1,3-benzothiazol-3-ium] here?
Answer: proven effective

Question: For CN(C)c1ccc(/C=C/c2cc(C(C)(C)C)[o+]c(C(C)(C)C)c2)cc1 [Compound 1493-0289, 2,6-di-tert-butyl-4-[(E)-2-[4-(dimethylamino)phenyl]ethenyl]-1$1^4-pyran-1-ylium], which “Efficacy in vivo” value is on record?
Answer: proven effective

Question: With CC[n+]1c(/C=C2C=C(/C=C/N(C)c3ccccc3)CC(C)(C)C/2)sc2ccccc21 [Compound 4090-1978, 2-{[(1E)-5,5-dimethyl-3-[(E)-2-[methyl(phenyl)amino]ethenyl]cyclohex-2-en-1-ylidene]methyl}-3-ethyl-1,3-benzothiazol-3-ium] as the molecule, how does the “Efficacy in vivo” value read?
Answer: proven effective
